Where two headings read alike, the source gives them in different places.
How the values were obtained:
[1] = test system: MDA-MB-468 (Her2-); experiment: In vitro cytotoxicity (Cell Titer-Glo, 120 hrs) on MDA-MB-468 cells; type: cell-based; settings: Homo sapiens, Table 6, Experiment #2, read-out: Cell Killing on MDA-MB-468 (Her2-) EC50
Excerpt: (§1) FOLR1-positive KB or Igrov1 cells, FOLR1-negative A549 cells, Her2 positive SKBR3 cells and Her2 negative MDA-MB-468 cells, Muc16-positive OVCAR3 and Mucl6-negative Skov3 were maintained in Ham's F-12: high glucose DMEM (50:50) (Corning) supplemented with 10% heat-inactivated fetal bovine serum (Corning), 1% Penicillin/Streptomycin (Corning) and 2 mmol/L-glutamax (Thermo Fisher Scientific). Adherent cells were washed twice with PBS, harvested with Acutase and counted by the Vi-CELL cell viability analyzer. A total of 625 cells were seeded in each well of a 384-well flat bottom white polystyrene plate. ADC, ISAC, and iADC conjugates were formulated at 2-fold starting concentration in the cell culture medium and filtered through MultiScreenHTS 96-Well Filter Plates (Millipore; Billerica, Mass.). Serial dilutions of test samples (1:3 serial dilution starting from 100 nM) was added into treatment wells. Assay plates were cultured at 37° C. in a CO2 incubator for 120 hrs before assay. For cell viability measurement, 30 μL of Cell Titer-Glo® reagent (Promega Corp. Madison, Wis.) was added into each well, and plates were processed as per product instructions. Relative luminescence was measured on an ENVISION® plate reader (Perkin-Elmer; Waltham, Mass.). Relative luminescence readings were converted to percent viability using untreated cells as controls. […]

[2] = test system: Skov3 (Muc16−); experiment: In vitro cytotoxicity (Cell Titer-Glo, 120 hrs) on Skov3 cells; type: cell-based; settings: Homo sapiens, SK-OV-3, Table 7, Experiment #2, read-out: Cell Killing on Skov3 (Muc16−) EC50
Excerpt: as §1

[3] = test system: SKBR3 (Her2+); experiment: In vitro cytotoxicity (Cell Titer-Glo, 120 hrs) on SKBR3 cells; type: cell-based; settings: Homo sapiens, SK-BR-3, Table 6, Experiment #2, read-out: Cell Killing on SKBR3 (Her2+) EC50
Excerpt: as §1

[4] = test system: FolR1 + Igrov1 Cells; experiment: In vitro cytotoxicity (Cell Titer-Glo, 120 hrs) on Igrov1 cells; type: cell-based
Excerpt: as §1

[5] = test system: A549 (FolR1−); experiment: In vitro cytotoxicity (Cell Titer-Glo, 120 hrs) on A549 cells; type: cell-based; settings: Homo sapiens, Table 21, Example 28, homogeneous iADCs
Excerpt: as §1

[6] = test system: KB (FolR1+); experiment: In vitro cytotoxicity (Cell Titer-Glo, 120 hrs) on KB cells; type: cell-based; settings: Homo sapiens, Table 21, Example 28, homogeneous iADCs
Excerpt: as §1

[7] = test system: monocytes; experiment: Immune cell activation in PBMCs with KB cells: monocytes (CD86 on CD14+ cells); type: cell-based, human; settings: Example 29; PBMCs from two donors with KB cells, two days
Experimental: (§2) This example evaluates the ability of three homogeneous iADCs to stimulate the activation of different immune cell populations (monocyte, B cell, and DCs). Free TLR7 agonists, free hemiasterlin warhead, anti-FolRα-ADC, and the corresponding ISACs were used as controls in the experiment. PBMCs from two healthy donors were isolated using similar protocol as descripted in previous examples. PBMCs were treated with three homogeneous iADC and controls in the presence of FolR1 positive KB cells for two days. The immune cells were then stained with different cell population markers and activation markers. Monocyte activation was indicated as increase of CD86 expression on CD14+ cells. B cell activation was indicated as increase of CD86 expression on CD14-/Lin+/HLA-DR+ cells. Dendritic cells (DC) activation was indicated as increase of CD86 expression on CD14-/Lin-/HLA-DR+/CD123+ cells.

[8] = test system: Dendritic cells (DC); experiment: Immune cell activation in PBMCs with KB cells: DCs (CD86 on CD14-/Lin-/HLA-DR+/CD123+ cells); type: cell-based, human; settings: Example 29; PBMCs from two donors with KB cells, two days
Experimental: as §2

[9] = test system: B cells; experiment: Immune cell activation in PBMCs with KB cells: B cells (CD86 on CD14-/Lin+/HLA-DR+ cells); type: cell-based, human; settings: Example 29; PBMCs from two donors with KB cells, two days
Experimental: as §2

[10] = test system: monocytes in human PBMCs; experiment: Monocyte activation (% CD86+ within CD14+) in isolated monocytes or PBMCs co-cultured with FolR1 positive KB cells; type: cell-based; settings: 48 hr co-culture with FolR1 positive KB cells
Experimental: PBMCs were isolated from human blood donors by Leukosep tube and Nycoprep 1.077 buffer according to the manufacture's recommendation. CD14+ monocytes were isolated by immunomagnetic negative selection from fresh PBMCs (StemCell #19359—EasySep Human Monocyte Isolation Kit). PBMCs and monocytes were cultured in RPMI supplemented with 10% heat-inactivated fetal bovine serum from Hyclone, 1% Penicillin/Streptomycin and 2 mmol/L-glutamax before the assay. On the day of assay, 300,000 of PBMC or 30,000 of monocytes in 40 ul of culture medium were seeded in 96-well cell culture plates. 40 ul of the test articles (formulated at 3× of starting concentration, 1:10 serial dilution) and 40 ul of 10,000 Oregon green stained target cells were then added into the well. The cell mixtures were co-cultured in the presence of test articles and 10 ug/ml LPS-RS for 48 hr. […] Cells were washed, fixed with 2% PFA overnight, and read on the Attune NxT cytometer (Thermo Fisher). […]
PBMCs were isolated from human blood donors by Leukosep tube and Nycoprep 1.077 buffer according to the manufacture's recommendation. […] Cells were washed, fixed with 2% PFA overnight, and read on the Attune NxT cytometer (Thermo Fisher). […]

Structure (SMILES): CCCCc1nc2c(N)nc3ccccc3c2n1Cc1ccc(CN)cc1 [Compound 4]
- EC50 [1]: > 100 nM
- EC50 [2]: > 100 nM
- EC50 [3]: > 100 nM
- EC50 ([4]; Homo sapiens, IGROV-1, 120 h, read-out: Cell Killing on FolR1 + Igrov1 Cells EC50): > 100 nM

Structure (SMILES): CCCCc1nc2c(N)nc3ccccc3c2n1OCCCCN [Compound 5]
- EC50 ([4]; Experiment #1, 120 hrs, NK = no cell killing detected): > 100 nM

Structure (SMILES): CCCCCNc1nc(N)nc2ccn(Cc3ccc(CN4CC5(CNCCO5)C4)cc3OC)c12 [Compound 7, 5-(4-((5-oxa-2,8-diazaspiro[3.5]nonan-2-yl)methyl)-2-methoxybenzyl)-N4-pentyl-5H-pyrrolo[3,2-d]pyrimidine-2,4-diamine]
- EC50 [5]: > 100 nM
- EC50 [6]: > 100 nM
- activation of monocytes, in words [7]: much more potent
- activation of DCs, in words [8]: much more potent
- activation of B cells, in words [9]: much more potent

Structure (SMILES): CCCCc1nc2c(N)nc3ccccc3c2n1Cc1ccc(CNC(=O)OCc2ccc(NC(=O)[C@H](CCCNC(N)=O)NC(=O)[C@@H](NC(=O)CCOCCOCCOCCOCCNC(=O)CCC(=O)N3Cc4ccccc4C#Cc4ccccc43)C(C)C)cc2)cc1 [Compound 401]
- monocyte activation, in words [10]: activated monocyte
